What was measured:
[1] = test system: C2C12 myobundles; test: C2C12 3D myobundle with IL-6 ± dipyridamole; type: cell-based; conditions: IL-6 2.5 μg/ml ± dipyridamole 1 μM, 14 days; Sham 890±39
Source text: C2C12 myobundles were fabricated following the protocol described by Bursac group (see references in ref. 44). Briefly, molds of polydimethylsiloxane (PDMS) designed for 12-well plates were created from Teflon masters with semicylindrical wells. These molds were sterilized, coated with 0.2% (w/v) Pluronic F-127 (Invitrogen) to prevent tissue adhesion, and paired with laser-cut Cerex frames (9×9 mm^2, 1-mm-wide rim) for myobundle attachment. The frames served as an anchor and guide during hydrogel compaction, ensuring uniaxial cell alignment. C2C12 cells were encapsulated in a hydrogel solution, including bovine fibrinogen (Sigma-Aldrich), matrigel (Corning), bovine thrombin (Sigma-Aldrich), and growth medium as concentration of bursac group indicates Referencias. The cell/hydrogel mixture was polymerized in the PDMS molds, and myobundles were cultured in a humidified chamber at 37° C., in 95% air and 5% CO2. After 4 days, the frames with myobundles were suspended in DM with treatments. DM and treatments are replaced every two days. GM and DM media contained 6-aminocaproic acid to reduce fibrinolysis. […] After the 14 days of treatment a bright-field photograph was taken to analyze the thickness of the fiber at its midpoint, and subsequently, they were embedded in OCT medium. […]

[2] = test system: C2C12; test: Western blot of phosphorylated AMPK; type: cell-based; conditions: 1 μM each, day 4; control 1.29±0.27%
Protocol: (§1) Cells were lysed with RIPA buffer and protein concentration was determined by BCA. […] Variations in intensity were expressed as % of basal (day 0) and expressed as mean±SEM. All results were calculated as a percentage of non-differentiated controls to minimize the intrinsic variation among different experiments.
We next studied if these changes in AMP/ATP ratio had any effect in AMPK activation.

[3] = test system: K/B×N serum transfer-induced arthritis; test: Histological analysis of tibialis anterior (H&E, ATPase, picrosirius red, oil red O)
Protocol: Analysis of tibialis tissue structure by Hematoxylin and eosin (H&E) staining was performed. Frozen samples were sectioned at 10 μm. For staining and subsequent processing by image segmentation we followed the indications established by Liu et al (53). Briefly, sections were brought from −80° C. to room temperature and immediately immersed in methanol for 30 min to improve fixation and stained with Hematoxylin and eosin. Image analysis was performed with ImagePro 2.2 using the Muscle Morphometry plugin following Liu's protocol.
H&E staining was performed on frozen tibialis anterior (TA). Frozen samples were section at 10 μm. For staining and subsequent processing by image segmentation we followed the indications established by Liu et al (53). Briefly, sections were brought from −80° C. to room temperature and immediately immersed in methanol for 30 min to improve fixation and stained with hematoxylin and eosin. Image analysis of cross-sectional area (CSA) was performed with ImagePro 2.2 using the Muscle Morphometry plugin following Liu's protocol.
ATPase staining was performed in TA 10 μM cross-sections as previously described (2). Briefly, cross-sections were incubated 45 min in 0.1 M glycine/NaCl buffer pH 9.4 with 0.75 M CaCl2 and 5 mg ATP (Sigma-Aldrich). After rinsed in distilled water, sections were incubated in 2% cobalt chloride, and then immersed in dilute (1/10) ammonium chloride to develop type 1 (white) and type 2 (black) fibers. After dehydration, sections were mounted with DPX mounting medium (VWR International Ltd., Lutterworth, UK). The quantification of the fiber types was performed using the Image J software package 1.49v (NIH, Bethesda, MD, USA).
Picrosirius Red staining was performed in TA to visualized tissue fibrosis. Slides were air-drayed for 30 min at room temperature and fixed in PFA 4% 30 min. Next, the sections were incubated for 90 min in picrosirius red solution (Polysciences) and immersed immediately in 0.1M HCl solution (Polysciences) for 1 min. The sections were washed 2 times in H2O, dehydrated in serial dilutions of alcohol and mounted with DPX. Bright field and polarized light images were taken. The quantification of infiltration of collagen I were performed using the Image J software package 1.49v (NIH, Bethesda, MD, USA) on polarized images.
To visualize triglycerides infiltration in the muscle, serial frozen TA 10 μm cross-sections were thaw and air dry and fixed in PFA 4% for 1 h before oil red O staining. […] Then we isolate the oil red staining retained in muscle with 200 μL of isopropanol in agitation to quantify the fat infiltrated in every muscle. The oil red released was read from 75 μL samples in a 96-well plate by Tecan Spark 20M in duplicate at 500 nm.

[4] = test system: C2C12 myoblast cell line; test: Western blot of C2C12 under pro-inflammatory conditions with/without dipyridamole
Protocol: Western blot was performed as described above.
Protein concentration was determined by BCA. 4 μg for cells and 40-50 μg for tissue samples of protein was subjected to 6-15% SDS-PAGE and transferred to a nitrocellulose membrane. Membranes were blocked with 3% BSA in Tris-buffered saline containing 0.1% Tween-20 (TBS-T). After that, the membranes were incubated overnight at 4° C. with the primary antibodies for A2A, A2B, MHC (Thermo Fisher Scientific, Waltham, USA), AMPK, pAMPK (Thr172), p21, p16 (Cell signaling, Danvers, EEUU) (1:1000 each) and Pax-7 (Developmental Studies Hybridoma Bank, Houston, EEUU) (1:500 each).

[5] = test system: K/B×N serum transfer-induced arthritis; test: Tissues weight at collection, acute model of inflammation; type: in vivo, C57BL/6J mice
Protocol: Data collected for absolute weight are correlated with mouse weight to obtain relative weight (*indicates differences with the sham group and $ indicates differences with the arthritic group). WAT, white adipose tissue; BAT, brown adipose tissue. Values are presented as mean±SEM. […]
Mice were weighted weekly. Development of arthritis was assessed daily, and the severity of arthritis was assessed in each paw on a 4-point scale defined as follows: 0=normal appearance, 1=localized edema/erythema over one surface of the paw, 2=edema/erythema involving more than one surface of the paw, and 3-4=marked edema/erythema involving the whole paw. Scores of all 4 paws were added for a composite score. All motor activity tests were performed prior to serum inoculation and at the highest point of inflammation. Mice were euthanized on day 16 for acute inflammation model or 30 days for Inflammation resolved model. A representative photo of body structure and muscle of pawn were taken on this day. Gastronemius was collected for protein and RNA extraction. Tibialis and soleus were included for freeze histology following the indications of H. Meng (see references in ref. 44). Bones were prepared for micro-computed tomography (microCT) and histology. Blood was drawn and serum was isolated for measurement of inflammatory cytokines and C-reactive protein (CPR).

[6] = test system: C2C12 cells; test: Cell proliferation assay (AlamarBlue); type: cell-based; conditions: 10^−9-10^−5 M, 24 and 48 hours
Protocol: C2C12 cells (American Type Culture Collection, ATCC, Manassas, VA, USA) were cultured in DMEM supplemented with 10% FBS and 1% penicillin-streptomycin. To induce myogenic differentiation, 70% confluence C2C12 cells were culture in DMEM containing 2% HS (horse serum). Cells were maintained in a humidified chamber at 37° C., in 95% air and 5% CO2. Media was replaced with fresh every 48h.
C2C12 cells were plated in 96-well plates (Corning, Cultek, Spain) (12.500 cells/well). Cell proliferation was measured using AlamarBlue assay according to the manufacturer's instructions, at 24 and 48 h of myogenic differentiation.

[7] = test system: C2C12; conditions: dipyridamole 1 μM ± PSB-603 1 μM
Protocol: as §1

[8] = test system: K/B×N serum transfer-induced arthritis; test: Western blot of gastronemius, acute model
[9] = healthy mice, dipyridamole alone, Sham 100±1%

OCCN(CCO)c1nc(N2CCCCC2)c2nc(N(CCO)CCO)nc(N3CCCCC3)c2n1 [dipyridamole, 2,6-bis(Diethanolamino)-4,8-dipiperidinopyrimido[5,4-d]pyrimidine]
Myobundle thickness [1]: did not lead to an alteration of the muscle fiber
pAMPK (Western blot) [2]: 2.66±0.7%
Collagen I fibers (Picrosirius Red) ([3]; RA+Dipy, RA 111.1±1.20%, Sham 100±1.26%): 94.78±0.98%
Fat infiltrate in TA (Oil Red staining) ([3]; RA+Dipy, RA 170.1±6.94%, Sham 100±3.97%): 99.21±7.217%
Tibialis muscle fiber area ([3]; arthritic mice + dipyridamole, acute model, arthritic 508±20, sham 1211±43): 1305±35 μm^2
Fat infiltration across whole muscle (TA and EDL) ([3]; healthy mice, dipy alone): able to decrease this fat infiltration
CREB expression (vs 100% basal) ([4]; 24 h of differentiation): 361.5±68.8%
AMPK activation ([4]; cytokine/LPS ± dipyridamole 1 μM, day 4, control 222.7±23.9%): did not increase AMPK levels
PKAα expression ([4]; day 4, dipyridamole combined with IL-6, IL-6 alone 107±5.8%): 245.3±34.3%
PKAα expression ([4]; day 4, dipyridamole combined with INFγ, INFγ alone 101.7±3.7%): 245.3±34.3%
PKAα expression ([4]; day 4, control 213.9±21.6%): 245.3±34.3%
Myogenesis (PAX7, MHC) ([4]; dipyridamole 1 μM alone): did not modulate myogenesis
BAT, Absolute weight ([5]; RA + Dipy): 0.157 ± 0.005 g
EDL, Absolute weight ([5]; RA + Dipy): 0.010 ± 0.013 g
Gastronemius, Absolute weight ([5]; RA + Dipy): 0.123 ± 0.004 g
Quadriceps, Absolute weight ([5]; RA + Dipy): 0.15 ± 0.01 g
Soleus, Absolute weight ([5]; RA + Dipy): 0.008 ± 0.001 g
Tibialis, Absolute weight ([5]; RA + Dipy): 0.056 ± 0.004 g
WAT, Absolute weight ([5]; RA + Dipy): 0.198 ± 0.018 g
Bodyweight, Absolute weight ([5]; RA mice + Dipy 25 mg/kg/day): 22.12 ± 0.18 g
BAT, Absolute weight ([5]; healthy mice, Dipy alone): 0.16 ± 0.003 g
EDL, Absolute weight ([5]; healthy mice, Dipy alone): 0.011 ± 0.008 g
Gastronemius, Absolute weight ([5]; healthy mice, Dipy alone): 0.174 ± 0.007 g
Soleus, Absolute weight ([5]; healthy mice, Dipy alone): 0.011 ± 0.002 g
Tibialis, Absolute weight ([5]; healthy mice, Dipy alone): 0.08 ± 0.009 g
WAT, Absolute weight ([5]; healthy mice, Dipy alone): 0.22 ± 0.02 g
Bodyweight, Absolute weight ([5]; healthy mice, Dipy alone 25 mg/kg/day): 24.26 ± 1.72 g
Proliferation [6]: No significant changes
PAX7 protein expression ([7]; 2% HS, day 1): 198±24%
MHC protein expression ([7]; day 1): 95±13%
Myf5 protein expression ([7]; day 3): 79.48±31%
PKAα protein expression ([7]; day 4): 358±156%
pAMPK expression ([7]; day 4): 284±79.8%
pCREB ([7]; day 4): 399.6±119.8%
CK protein expression ([8]; RA+Dipy, RA 77.98±10.81%, Sham 100±0%): 393.4±55.09%
A2B receptor expression in gastronemius ([8]; arthritic mice + dipyridamole, arthritic 35±9%, Sham 100±1%): 160±14%
AMPK phosphorylation in gastronemius ([8]; arthritic mice + dipyridamole, arthritic 53±7%, sham 100±1%): 152±5%
MHC protein expression in gastronemius ([8]; arthritic mice + dipyridamole, arthritic 60±7%, sham 100±1%): 184±6%
A2A receptor expression in gastronemius ([8]; arthritic mice + dipyridamole, arthritic 71±3%, Sham 100±1%): 123±6%
Pax7 protein expression in gastronemius ([8]; arthritic mice + dipyridamole, arthritic 151±13%, sham 100±1%): 274±11%
p21 protein expression ([8]; arthritic mice + dipyridamole, arthritic 221±38%): 64±15%
p16 protein expression ([8]; arthritic mice + dipyridamole, arthritic 392±25%): 139±32%
Pax7 and MHC protein expression in gastronemius ([8]; healthy mice, dipy alone vs sham): non-significant increase
A2A receptor expression in gastronemius [8, 9]: 118.8±11.30%
A2B receptor expression in gastronemius [8, 9]: 167.6±10.63%
pAMPK expression in gastronemius [8, 9]: 194.2±5.2%

— patent US20260263468A1 (Fundación Instituto de Investigación Sanitaria Fundación …, priority 2023, published 2026)
